Measured values reported in patent publication US8921412B2, “C-aryl ansa SGLT2 inhibitors” (Green Cross Corporation, priority 2011, dated 2014).
Read-outs that look alike come from different tables or passages of the source.

Tests used:
human SGLT2 = human SGLT2 (Homo sapiens (Human), UniProt P31639); assay: Inhibitory effects on human SGLT2 activities (14C-AMG uptake in CHO cells expressing hSGLT2); type: cell-based; conditions: CHO cells stably expressing hSGLT2, 37° C., 2 h
Description: Human SGLT2 (hSGLT2) gene was amplified by PCR from cDNA-Human Adult Normal Tissue Kidney (Invitrogen). The hSGLT2 sequence was cloned into pcDNA3.1(+) for mammalian expression and were stably transfected into chinese hamster ovary (CHO) cells. SGLT2-expressing clones were selected based on resistance to G418 antibiotic (Geneticin) and activity in the ^14C-α-methyl-D-glucopyranoside (^14C-AMG) uptake assay.
For sodium-dependent glucose transport assay, cells expressing hSGLT2 were seeded into a 96-well culture plate at a density of 5×10^4 cells/well in RPMI medium 1640 containing 10% fetal bovine serum. The cells were used 1 day after plating. They were incubated in pretreatment buffer (10 mM HEPES, 5 mM Tris, 140 mM choline chloride, 2 mM KCl, 1 mM CaCl2, and 1 mM MgCl2, pH 7.4) at 37° C. for 10 min. They were then incubated in uptake buffer (10 mM HEPES, 5 mM Tris, 140 mM NaCl, 2 mM KCl, 1 mM CaCl2, 1 mM MgCl2, and 1 mM ^14C-nonlabeled AMG pH 7.4) containing ^14C-labeled AMG (8 μM) and the inventive compound or dimethyl sulfoxide (DMSO) vehicle at 37° C. for 2 h. Cells were washed twice with washing buffer (pretreatment buffer containing 10 mM AMG at room temperature) and then the radioactivity was measured using a liquid scintillation counter. IC50 was determined by nonlinear regression analysis using GraphPad PRISM [Katsuno, K. et al. J. Pharmacol. Exp. Ther. 2007, 320, 323-330; Han, S. et al. Diabetes, 2008, 57, 1723-1729].

[1] = not given; remark: listed apart in the source

human SGLT2, sequence (P31639 whole entry): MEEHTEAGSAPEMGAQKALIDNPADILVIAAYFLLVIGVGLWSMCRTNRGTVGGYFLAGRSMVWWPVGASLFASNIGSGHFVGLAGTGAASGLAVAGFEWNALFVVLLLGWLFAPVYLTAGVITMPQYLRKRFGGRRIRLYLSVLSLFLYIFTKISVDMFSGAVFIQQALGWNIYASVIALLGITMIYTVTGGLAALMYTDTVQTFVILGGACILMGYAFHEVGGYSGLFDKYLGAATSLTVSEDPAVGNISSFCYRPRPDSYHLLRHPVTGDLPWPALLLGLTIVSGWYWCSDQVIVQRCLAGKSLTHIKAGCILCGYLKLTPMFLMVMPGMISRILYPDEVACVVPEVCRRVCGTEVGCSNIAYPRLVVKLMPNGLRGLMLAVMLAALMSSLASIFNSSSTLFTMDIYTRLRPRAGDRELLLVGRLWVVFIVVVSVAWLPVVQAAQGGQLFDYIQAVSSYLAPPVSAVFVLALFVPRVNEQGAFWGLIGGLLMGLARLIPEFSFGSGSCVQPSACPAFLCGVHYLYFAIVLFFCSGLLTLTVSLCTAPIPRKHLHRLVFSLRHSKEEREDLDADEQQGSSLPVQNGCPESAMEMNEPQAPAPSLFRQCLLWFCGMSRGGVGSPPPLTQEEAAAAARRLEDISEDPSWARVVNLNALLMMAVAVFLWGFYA

Compound | IC50 (human SGLT2) [nM] | other results
O[C@@H]1[C@@H](O)[C@H]2O[C@H](COCCCCCOc3cc(Cl)c(Cc4ccc5c(c4)OCCO5)cc32)[C@H]1O [Example 14, (9R,10S,11R,12R,13S)-16-Chloro-15-((2,3-dihydrobenzo[b][1,4]dioxin-6-yl)-methyl)-3,4,5,6,8,9,10,11,12,13-decahydro-2H-9,13-epoxybenzo[h][1,7]dioxacyclopentadecine-10,11,12-triol] | 1.38 | –
CCOc1ccc(Cc2cc3c(cc2Cl)OCCCCCCOC[C@H]2O[C@@H]3[C@H](O)[C@@H](O)[C@@H]2O)cc1 [Example 6, (10R,11S,12R,13R,14S)-17-Chloro-16-(4-ethoxybenzyl)-2,3,4,5,6,7,9,10,11,12,13,14-dodecahydro-10,14-epoxybenzo[i][1,8]dioxacyclohexadecine-11,12,13-triol] | 3.63 | –
CCOc1ccc(Cc2cc3c(cc2Cl)OCC=CCOC[C@H]2O[C@@H]3[C@H](OC(C)=O)[C@@H](OC(C)=O)[C@@H]2OC(C)=O)cc1 | – | ring closure, isolated yield (from C=CCOC[C@H]1O[C@@H](c2cc(Cc3ccc(OCC)cc3)c(Cl)cc2OCC=C)[C@H](OC(C)=O)[C@@H](OC(C)=O)[C@@H]1OC(C)=O, rcm bond, 12-membered ring, Grubbs II (20 mol%), DCM, 5.0 mM, 60.0 °C): 23%; ring closure, yield of all isomers ([1]; from C=CCOC[C@H]1O[C@@H](c2cc(Cc3ccc(OCC)cc3)c(Cl)cc2OCC=C)[C@H](OC(C)=O)[C@@H](OC(C)=O)[C@@H]1OC(C)=O, rcm bond, Grubbs 2nd generation catalyst, dichloromethane, 5.0 mM, 60.0 °C, 72.0 h): 23%
CCc1ccc(Cc2cc3c(cc2Cl)OCCCCCCOC[C@H]2O[C@@H]3[C@H](O)[C@@H](O)[C@@H]2O)cc1 [Example 10, (10R,11S,12R,13R,14S)-17-Chloro-16-(4-ethylbenzyl)-2,3,4,5,6,7,9,10,11,12,13,14-dodecahydro-10,14-epoxybenzo[i][1,8]dioxacyclohexadecine-11,12,13-triol] | 1.4 | –
CCOc1ccc(Cc2cc3c(cc2Cl)OC/C=C\COC[C@H]2O[C@@H]3[C@H](O)[C@@H](O)[C@@H]2O)cc1 [Example 1, (8R,9S,10R,11R,12S)-15-Chloro-14-(4-ethoxybenzyl)-2,5,7,8,9,10,11,12-octahydro-2H-8,12-epoxybenzo[g][1,6]dioxacyclotetradecine-9,10,11-triol] | 0.974 | –
CSc1ccc(Cc2cc3c(cc2Cl)OCCCCCOC[C@H]2O[C@@H]3[C@H](O)[C@@H](O)[C@@H]2O)cc1 [Example 12, (9R,10S,11R,12R,13S)-16-Chloro-15-(4-(methylthio)benzyl)-3,4,5,6,8,9,10,11,12,13-decahydro-2H-9,13-epoxybenzo[h][1,7]dioxacyclopentadecine-10,11,12-triol] | 0.778 | –
CCOc1ccc(Cc2cc3c(cc2Cl)OCCCCCOC[C@H]2O[C@@H]3[C@H](OCc3ccccc3)[C@@H](OCc3ccccc3)[C@@H]2OCc2ccccc2)cc1 | – | ring closure, isolated yield (from CCOc1ccc(Cc2cc([C@@H]3O[C@H](COCCCCCI)[C@@H](OCc4ccccc4)[C@H](OCc4ccccc4)[C@H]3OCc3ccccc3)c(O)cc2Cl)cc1, ether bond, 13-membered ring, K2CO3/18-crown-6, toluene, 10.0 mM, 25.0 °C): 64%; ring closure, yield of all isomers ([1]; from CCOc1ccc(Cc2cc([C@@H]3O[C@H](COCCCCCI)[C@@H](OCc4ccccc4)[C@H](OCc4ccccc4)[C@H]3OCc3ccccc3)c(O)cc2Cl)cc1, ether bond, potassium carbonate / 18-crown-6, toluene, 10.0 mM, 25.0 °C, 16.0 h): 64%
CCOc1ccc(Cc2cc3c(cc2Cl)OCCCCCOC[C@H]2O[C@@H]3[C@H](O)[C@@H](O)[C@@H]2O)cc1 [Example 3, (9R,10S,11R,12R,13S)-16-Chloro-15-(4-ethoxybenzyl)-3,4,5,6,8,9,10,11,12,13-decahydro-2H-9,13-epoxybenzo[h][1,7]dioxacyclopentadecine-10,11,12-triol] | 0.899 | –
O[C@@H]1[C@@H](O)[C@H]2O[C@H](COCCCCOc3cc(Cl)c(Cc4ccc5c(c4)OCCO5)cc32)[C@H]1O [Example 13, (8R,9S,10R,11R,12S)-15-Chloro-14-((2,3-dihydrobenzo[b][1,4]dioxin-6-yl)-methyl)-2,3,4,5,7,8,9,10,11,12-decahydro-8,12-epoxybenzo[g][1,6]dioxacyclotetradecine-9,10,11-triol] | 3.65 | –
CCc1ccc(Cc2cc3c(cc2Cl)OCCCCOC[C@H]2O[C@@H]3[C@H](O)[C@@H](O)[C@@H]2O)cc1 [Example 8, (8R,9S,10R,11R,12S)-15-Chloro-14-(4-ethylbenzyl)-2,3,4,5,7,8,9,10,11,12-decahydro-8,12-epoxybenzo[g][1,6]dioxacyclotetradecine-9,10,11-triol] | 1.4 | –
CCOc1ccc(Cc2cc3c(cc2Cl)OC[C@H]2C[C@H]2COC[C@H]2O[C@@H]3[C@H](O)[C@@H](O)[C@@H]2O)cc1 [Example 15, (4R,5S,6R,7R,8S)-11-Chloro-10-(4-ethoxybenzyl)-(1aR,14aS)-1a,2,4,5,6,7,8,9,10-octahydro-1H-4,8-epoxybenzo[g]cyclopropa[c][1,6]dioxacyclotetradecine-5,6,7-triol] | 2.3 | –
CSc1ccc(Cc2cc3c(cc2Cl)OCCCCOC[C@H]2O[C@@H]3[C@H](O)[C@@H](O)[C@@H]2O)cc1 [Example 11, (8R,9S,10R,11R,12S)-15-Chloro-14-(4-(methylthio)benzyl)-2,3,4,5,7,8,9,10,11,12-decahydro-8,12-epoxybenzo[g][1,6]dioxacyclotetradecine-9,10,11-triol] | 1.35 | –
CCOc1ccc(Cc2cc3c(cc2Cl)OCCCCOC[C@H]2O[C@@H]3[C@H](O)[C@@H](O)[C@@H]2O)cc1 [Example 2, (8R,9S,10R,11R,12S)-15-Chloro-14-(4-ethoxybenzyl)-2,3,4,5,7,8,9,10,11,12-decahydro-2H-8,12-epoxybenzo[g][1,6]dioxacyclotetradecine-9,10,11-triol] | 2.27 | –
CCOc1ccc(Cc2cc3c(cc2Cl)OC[C@H]2C[C@H]2COC[C@H]2O[C@@H]3[C@H](OCc3ccccc3)[C@@H](OCc3ccccc3)[C@@H]2OCc2ccccc2)cc1 | – | ring closure, isolated yield (from CCOc1ccc(Cc2cc([C@@H]3O[C@H](CO)[C@@H](OCc4ccccc4)[C@H](OCc4ccccc4)[C@H]3OCc3ccccc3)c(OC[C@H]3C[C@H]3CI)cc2Cl)cc1, ether bond, 12-membered ring, NaH, DMF, 47.0 mM, 25.0 °C): 63%; ring closure, yield of all isomers ([1]; from CCOc1ccc(Cc2cc([C@@H]3O[C@H](CO)[C@@H](OCc4ccccc4)[C@H](OCc4ccccc4)[C@H]3OCc3ccccc3)c(OC[C@H]3C[C@H]3CI)cc2Cl)cc1, ether bond, sodium hydride, N,N-dimethylformamide, 47.0 mM, 25.0 °C, 3.0 h): 63%
CCOc1ccc(Cc2cc3c(cc2Cl)OC[C@@H]2C[C@@H]2COC[C@H]2O[C@@H]3[C@H](O)[C@@H](O)[C@@H]2O)cc1 [Example 16, (4R,5S,6R,7R,8S)-11-Chloro-10-(4-ethoxybenzyl)-(1aS,14aR)-1a,2,4,5,6,7,8,9,10-octahydro-1H-4,8-epoxybenzo[g]cyclopropa[c][1,6]dioxacyclotetradecine-5,6,7-triol] | 14 | –
CCc1ccc(Cc2cc3c(cc2Cl)OCCCCCOC[C@H]2O[C@@H]3[C@H](O)[C@@H](O)[C@@H]2O)cc1 [Example 9, (9R,10S,11R,12R,13S)-16-Chloro-15-(4-ethylbenzyl)-3,4,5,6,8,9,10,11,12,13-decahydro-2H-9,13-epoxybenzo[h][1,7]dioxacyclopentadecine-10,11,12-triol] | 1.38 | –
CCOc1ccc(Cc2cc3c(cc2Cl)OCC=CCOC[C@H]2O[C@@H]3[C@H](OCc3ccccc3)[C@@H](OCc3ccccc3)[C@@H]2OCc2ccccc2)cc1 | – | ring closure, isolated yield (from C=CCOC[C@H]1O[C@@H](c2cc(Cc3ccc(OCC)cc3)c(Cl)cc2OCC=C)[C@H](OCc2ccccc2)[C@@H](OCc2ccccc2)[C@@H]1OCc1ccccc1, rcm bond, 12-membered ring, Grubbs II (11 mol%), DCM, 9.6 mM, 60.0 °C): 26%; ring closure, yield of all isomers ([1]; from C=CCOC[C@H]1O[C@@H](c2cc(Cc3ccc(OCC)cc3)c(Cl)cc2OCC=C)[C@H](OCc2ccccc2)[C@@H](OCc2ccccc2)[C@@H]1OCc1ccccc1, rcm bond, Grubbs 2nd generation catalyst, dichloromethane, 9.6 mM, 60.0 °C, 16.0 h): 26%
